The record followed here is ChEMBL document CHEMBL1681682, “Synthesis and hydrolytic evaluation of acid-labile imine-linked cytotoxic isatin model systems” (Bioorg Med Chem, 2011).

The series is described as follows: Stability of the compound assessed as half life in 1M sodium acetate buffer of pH 4.5 at 37 degC. The class given is physicochemical.

What is called half-life is how long it takes for the measured level to halve.

Regarding `COC(=O)[C@H](CCCCNC(=O)Cc1ccc(N=C2C(=O)N(Cc3ccc(OC)cc3)c3c(Br)cc(Br)cc32)cc1)NC(C)=O` (mixture of isomers), the half-life turned out to be 23 min.

As to `COC(=O)[C@H](CCCCNC(=O)Cc1cccc(N=C2C(=O)N(Cc3ccc(OC)cc3)c3c(Br)cc(Br)cc32)c1)NC(C)=O` (mixture of isomers), the half-life is 33 min.
